Patent EP3884941A1, “INFLAMMASOME INHIBITORS AND USE THEREOF” (CENTRO DE INVESTIGACION PRINCIPE FELIPE, priority 2020, dated 2021)
“Also recorded” adds a separate entry of the source. Where two headings read alike, the source gives them in different places.

How the values were obtained:
NLRP3 inflammasome [1] = assay: inflammasome activation cellular assay, LPS plus ATP, THP-1 cells; format: cell-based, human
Experimental: (§1) The MM01 compound was evaluated in the THP-1, or PMA-differentiated THP-1 cells (50 nM PMA for 24h) stimulated with lipopolysaccharide (LPS) plus adenosine triphosphate (ATP) to stimulate ASC-dependent inflammasomes NLRP3. Briefly, 1x10^6 cells were seeded in 6-well plates in 1 mL RPMI media that contained 1% FBS. Cells were either mock-treated or primed with compounds at the indicated concentrations for 30 min, followed by treatment with 100 ng/mL LPS (Sigma) and 2.5 mM ATP (Sigma) for 6 h at 37°C. In the case of nigericin stimulation, cells were primed with LPS for 3h, and then 10 µM nigericin (Sigma) was added for 30 min. Supernatants were harvested and clarified by centrifugation at 1500 rpm at RT, and a cytokine analysis was performed. Both IL-1β secretion and the release of IL-18were monitored by an ELISA assay (BD OptEIA™ Human IL-1β ELISA Kit and Human IL-18 Module Set eBioscience) following the manufacturer's instructions. Cell viability was analyzed in parallel by evaluating the release of lactate dehydrogenase (LDH) according to a commercial kit (CytoTox-ONE™ Homogeneous Membrane Integrity Assay; Promega). The release of LDH was calculated using the formula: the release of LDH (%) = 100x (Abs490 treated -Abs490 untreated cells)/ Abs490 untreated cells lysed with Triton 9% (maximum release of LDH).
(§2) The supernatants of the treated cells were precipitated by the chloroform-methanol method. Pellets were obtained by lysing cells in 25 mM of Tris-HCI pH 7.4, 1 mM EDTA, 1 mM EGTA and 1% SDS, plus protease and phosphatase inhibitors. The protein concentration was determined by the BCA protein assay. Samples were separated in a 14% SDS-PAGE gel, transferred to a nitrocellulose membrane and blocked with 5% skimmed milk for 1 h. Then the membrane was incubated overnight with primary antibodies: α-casp1 (1:1000; Cell Signaling 2225), α-IL-1β (1:1000; Acris R1130P), α-NLRP3 (1:1000; Cell Signaling 15101), α-tubulin (1:3000; Abcam ab6160) at 4°C. Membranes were washed and probed with the appropriate secondary antibody conjugated with peroxidase for enhanced chemiluminescence detection (Amersham Pharmacia Biotech).

NLRP3 inflammasome [2] = assay: inflammasome activation cellular assay, LPS plus nigericin, PMA-differentiated THP-1 cells; format: cell-based, human; settings: MM01 10 µM
Experimental: as §1
as §2, with “Membranes were washed and probed with the appropriate secondary antibody conjugated with peroxidase for enhanced chemiluminescence detection (Amersham Pharmacia Biotech).” left out

[3] = test system: ASC specks in THP1-ASC-GFP cells; assay: ASC speck assay; format: cell-based, human; settings: THP-1 ASC GFP, LPS 100 ng/mL + nigericin 10 µM; MM01 10 µM, VX-765 5 µM
Experimental: THP1-ASC-GFP cells were seeded at 1×10^6/ml the day prior to use in experiments on 35 mm glass-bottom culture dishes. The following day medium was replaced containing the indicated inhibitors or vehicle for 30 min. Cells were then primed with 100 ng/ml LPS for 3h and stimulated with 10 µM nigericin for 30 min. Samples were fixed in 4% paraformaldehyde (PFA) for 10 min at RT and washed several times. Coverslips were prepared in mounting medium plus DAPI and analyzed in a Leica SP8 confocal microscope.

[4] = molecular target: T1, ASC-mediated PC1 activation (Homo sapiens, UniProt P29466); assay: ASC-mediated PC1 reconstitution in vitro assay (primary screening); format: biochemical
T1 construct: His; made in house; host or cells: PC1: Sf9 insect cells (baculovirus)
T1 sequence (P29466 1-404): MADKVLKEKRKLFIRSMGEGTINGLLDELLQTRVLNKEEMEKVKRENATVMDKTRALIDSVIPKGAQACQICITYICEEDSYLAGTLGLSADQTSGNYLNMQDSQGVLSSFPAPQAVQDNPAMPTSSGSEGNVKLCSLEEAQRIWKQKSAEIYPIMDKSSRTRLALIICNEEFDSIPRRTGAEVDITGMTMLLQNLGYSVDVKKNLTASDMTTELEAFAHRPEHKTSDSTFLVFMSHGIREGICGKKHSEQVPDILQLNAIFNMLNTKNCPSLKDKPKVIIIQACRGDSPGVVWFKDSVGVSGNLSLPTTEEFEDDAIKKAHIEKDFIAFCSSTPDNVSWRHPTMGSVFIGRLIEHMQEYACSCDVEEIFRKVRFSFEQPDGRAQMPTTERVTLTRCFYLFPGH
Experimental: Recombinant PC1 (50 nM) was preincubated with the indicated concentrations of compounds for 20 min at RT in Assay Buffer (20 mM HEPES pH 7.5, 10 mM KCI, 1.5 mM MgCl2, 1mM EDTA, 1 mM EGTA, 1 mM DTT). Then 300 nM of ASC were added and incubated for another 10 min period. Caspase-1 activation was measured using fluorogenic substrate Ac-WEHD-AFC (80 µM; Enzo Life Sciences) by continuously monitoring the release of the AFC (7-Amino-4-trifluoromethylcoumarin) product in a Wallac Victor workstation. The compounds were initially tested at 20 µM with 1% of DMSO. Data are reported as the percentage of inhibition compared with the absence of the compound.
The materials and methods employed in these experiments are now described.

NLRP3 inflammasome [5] = assay: murine peritoneal macrophages cellular assay, LPS plus ATP; format: cell-based, Mice (BALB/c)
Experimental: Mice (BALB/c) were euthanized, and 5 ml of cold medium was injected (20G needle) into the peritoneal region. The aspirated fluid from peritoneum was centrifuged for 10 min at 400 × g and the cell pellet resuspended in DMEM/F12-10 (1 ml). 40000 cells/well were plated in 24-well plates. Cells were allowed to adhere to the plate by culturing them 2 h at 37°C and then, non-adherent cells were removed by gently washing three times with warm PBS. Macrophages were primed for 4 h with 100 ng/ml pure LPS (Alexis Biochemicals Corporation), in serum-free IMDM medium followed by 30 min with 5 mM ATP. Supernatants were harvested and clarified by centrifugation at 1500 rpm at RT and cytokine, and caspase-1 activation analysis was performed as previously described in Example 3.

[6] = THP-1, LPS 100 ng/ml + ATP 2.5 mM, MM01 1, 2.5 or 5 µM, ELISA
[7] = PMA-differentiated THP-1, LPS 100 ng/ml + nigericin 10 µM

How did the IL-1β secretion (NLRP3 inflammasome [1]; [6]) turn out when `C=CCN1C(=O)/C(=C2/C(=O)Nc3ccccc32)SC1=S` [MM01] was run?
Its IL-1β secretion is “decrease”.

What about the IL-18 secretion (NLRP3 inflammasome [1]; [6]) of the same molecule?
The IL-18 secretion was “decrease”.

And the “caspase-1 and IL-1β processing” value (NLRP3 inflammasome [1]; THP-1, LPS + ATP, immunoblotting (Figure 3C))?
The value was “decrease”.

And the LDH release (NLRP3 inflammasome [1]; THP-1, LPS + ATP, pyroptosis / cell viability, MM01 1, 2.5 or 5 µM, VX-765 5 µM)?
The LDH release was “significantly reduce; also recorded: significantively decreased”.

And the IL-1β secretion (NLRP3 inflammasome [2]; [7])?
The IL-1β secretion was “decreased”.

And the IL-18 secretion (NLRP3 inflammasome [2]; [7])?
The IL-18 secretion was “decreased”.

And the pyroptotic cell death (NLRP3 inflammasome [2]; PMA-differentiated THP-1, LPS + nigericin, LDH release)?
The pyroptotic cell death was “decreased”.

And the ASC speck formation [3]?
The ASC speck formation was “inhibited”.

And the IC50 ([4]; PC1 50 nM, ASC 300 nM, substrate Ac-WEHD-AFC, read-out: IC50)?
The IC50 was 0.5 ± 0.1 µM.

What about the IC50 ([4]; dose-response curve 0.04 to 40 µM (Figure 1B), stated in words) of the same molecule?
Its IC50 is “in the nanomolar range”.

And the “formation of p20 subunit” value ([4]; immunoblotting of PC1 processing (Figure 1C))?
The value was “decrease”.

What about the TNF-α release (NLRP3 inflammasome [5]) of the same molecule?
The TNF-α release was “not correlated with a significant reduction”.

What about the “release of LDH” value (NLRP3 inflammasome [5]) of the same molecule?
Its value is “decreased”.

And the IL-1β release (NLRP3 inflammasome [5]; at 5 and 10 µM of MM01)?
Its IL-1β release is “significant inhibition”.

And the IL-6 release (NLRP3 inflammasome [5]; at 5 and 10 µM of MM01)?
The IL-6 release was “significant inhibition”.
